Entries after “also recorded” stand apart in the source; their conditions may differ.
How the values were obtained:
[1] = system: B16F10 cells; test: Colony survival assay, B16F10 cells; assay type: cell-based, mouse
Method: (14B) Colony survival assay of H1975 cell line. (14C) Colony survival assay of A549 cell line. (14D) Colony survival assay of B16F10 cell line. All cell lines were treated with 50 μM c #3 and the indicated concentration of cisplatin for 48 h, then growth media was replaced with normal growth media with no compound. Cells were allowed to recover 4-5 days before staining. For all cell lines, colony survival assay n=3 independent experiments, SD=1. P value was calculated by two-way ANOVA multiple comparison. IC50 was calculated using linear regression for H1975 and A549, and sigmoidal regression for B16F10.
Colony survival assay to compare the relative survival rate of cells treated with cisplatin alone, or with combined treatment of cisplatin and 50 μM of compound 3 (see FIG. 1). Molecule presented preliminary promising results, We tested compound 3 (c #3) on different cancer cell lines: two lung cancer cell lines, (1) human non-small cell lung carcinoma H1975 cells, (2) epithelial lung adenocarcinoma A549 cells, and (3) mouse aggressive melanoma B16F10 cells.

[2] = molecular target: MAD2L2 (Homo sapiens, UniProt Q9UI95); test: Field Effect Biosensing (FEB) binding assay; set-up: made in house; host or cells: E. coli BL21 Star
Chain of MAD2L2 (Q9UI95 whole entry): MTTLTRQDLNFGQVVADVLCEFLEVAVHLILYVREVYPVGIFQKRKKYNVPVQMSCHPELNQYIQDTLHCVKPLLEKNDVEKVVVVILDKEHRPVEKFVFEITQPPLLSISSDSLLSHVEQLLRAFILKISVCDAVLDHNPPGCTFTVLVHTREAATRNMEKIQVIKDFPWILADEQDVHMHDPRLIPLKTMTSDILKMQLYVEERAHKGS
Method: E. coli BL21 Star cells were transfected with GST-MAD2L2 vector. Protein induction was done for 4 hours in 30° C., with 1 mM IPTG. Purification was done according to standard GST protocol.
The binding kinetics of MAD2L2 to the small molecule compounds were measured by the Field Effect Biosensing (FEB) Agile R100 label-free binding assay (Nanomedical Diagnostics Inc), following their standard protocol. Briefly, 500 nM of purified MAD2L2 was immobilized on a graphene sensor chip through amine groups. The current baseline level for the chip was recorded in PBS. Next, PBS was aspirated, and the changes in the baseline current induced by 50 μl of 1, 10, 20, 30, 40 and 50 μM droplets of the tested compound were recorded. KD values were calculated by the DataLine 2.0 software by either a Hill equation fit or by using the kon and koff values at a single concentration. The KD values obtained by these two methods were almost identical.
In order to validate that MAD2L2 is a direct target of c #2 and c #3, the inventors tested the compounds' binding kinetics to a recombinant protein by Field Effect Biosensing (FEB) technology. Briefly, purified GST-MAD2L2 was immobilized onto a graphite chip, and the current across the chip is measured to determine the baseline current. […] The Kon and Koff of the interaction were measured over time and were used to calculate the KD. […]

For `Cc1oc(-c2ccco2)nc1CC(=O)N[C@@H](C(=O)O)c1ccccc1` [Compound 3], the “toxicity, compound alone” value ([1]; B16F10, 50 μM compound alone) was “caused no toxicity”, the sensitization to cisplatin ([1]; B16F10, cisplatin + 50 μM c #3, 48 h) was “sensitization to cisplatin treatment” and the “affinity to MAD2L2 compared with c #2” value ([2]; from FEB KD values, listed as c #3) was “approximately seven-fold higher; also recorded: sevenfold higher”. For the same compound, the Kd ([2]; purified GST-MAD2L2 immobilized on chip, 1-50 μM compound) was 44.9 µM.

Reference: patent publication US20250255876A1, “COMPOSITIONS AND METHODS FOR CANCER TREATMENT” (ARIEL SCIENTIFIC INNOVATIONS LTD., priority 2021, published 2025)
